Where two headings read alike, the source gives them in different places.
Legend:
[1] = test system: carrageenan-induced cell accumulation and edema formation within the rat pleural cavity; assay: carrageenan pleurisy assay (anti-inflammatory activity); type: in vivo, rat (Lewis male); conditions: po, fasted rats, 0.5 hr before carrageenan, 4 hr
Description: The rats used in these experiments were Lewis males, weighing 160-180 g, assigned to groups consisting of 5 animals. Test compounds were given to fasted rats by oral gavage 0.5 hr prior to intrapleural injection of 50 mg carrageenan. After 4 hr, the pleural exudate was collected and the edema volume and cell number were determined. ED50 values were estimated by linear regression analysis, and represent the doses at which a given drug produced 50% inhibition of carrageenan-induced cell accumulation and edema formation within the rat pleural cavity.

[2] = test system: morphine-induced Straub tail; assay: Straub tail test (central muscle relaxant activity); type: in vivo; conditions: Mus musculus, 1 h; mice, oral gavage 60 min prior to scoring; dose preventing Straub tail in 50% of mice; read-out: Straub Tail p.o. ED50
Description: Central muscle relaxant activity of compounds of formula (I) was determined using a Straub tail test based on that described by K. O. Ellis and J. F. Carpenter, Neuropharrnacol, 13, 211 (1974).
The Straub tail test result is reported as an ED50 in mg/kg. The ED50 is defined as the dose of compound administered, which prevents Straub tail in 50% of mice. The compound is administered by oral gavage 60 min. prior to scoring.
(§1) Antagonism of morphine-induced Straub tail reflects central muscle relaxant efficacy while failure in the rotorod test reflects sedation and incoordination. Determination of the ratio of rotorod failure to antagonism of morphine-induced Straub tail is a means of assessing side effect liability of central muscle relaxants (G. D. Novak, Drug Dev. Res., 2, 383 (1982).

CD-1 mice = assay: single dose oral toxicity; type: in vivo, male CD-1 mice; conditions: within the seven days post dosing, single oral gavage, male CD-1 mice
Description: (§2) Single doses (15, 45, 100 or 250 mg/kg) were administered by oral gavage to groups of four non-fasted male CD-1 mice (Charles River).
(§3) Single doses (5, 15, 40, 100, 250, 500 or 1000 mg/kg) were administered by oral gavage to groups of four non-fasted male CD-1 mice (Charles River).

[3] = single dose oral toxicity; type: in vivo, male CD-1 mice; conditions: mouse, in vivo; single oral gavage, non-fasted male CD-1 mice, seven days; read-out: maximum tolerated dose
Description: as §2, §3

[4] = mouse rotorod test (sedation and incoordination); conditions: in vivo, po; for selectivity ratio: ratio of rotorod ED50 to Straub tail ED50, p.o.
Description: The side effect potential of these compounds was determined using the mouse rotorod test as described by G. D. Novak and J. M. Zwolshei, J.Pharmacological. Methods, 10, 175 (1983). Rotorod result is reported as ED50 in mg/kg. The ED50 is the dose which causes 50% of the animals to fail to maintain position on a cylinder rotating at 11 r.p.m.
as §1

[5] = test system: algesic response to mechanical force clamp on the phalanges; assay: phalanges algesic assay (strong analgesia); type: in vivo, rat (Lewis male); conditions: Rattus norvegicus, po, 1 h; p.o., fasted rats, one hour after dosing; 50% inhibition of latency response
Description: The rats used in these studies were Lewis male weighing 160-180 g and assigned to groups of 5-6 animals. The phalanges algesic assay is an algesic test (no hyperalgesia) in which test compounds were given to fasted rats by oral gavage. One hour later an F-shaped mechanical force clamp was applied to the phalanges of one hind limb which initiated an algesic response(vocalization or flight). Latency (seconds) to the algesic response was determined with 3 seconds maximum allowed time. ED50 values were estimated by linear regression analysis and represent the dose at which a given compound extended the latency response to produce 50% inhibition using the formula: (3 sec.-Control Latency)-(3 sec.-Test Latency)/3 sec.-Control Latency×100.

[6] = test system: trypsin-induced rat hind limb hyperalgesia; assay: trypsin-induced rat hind limb hyperalgesia assay (mild analgesia); type: in vivo, rat (Lewis male); conditions: po, fasted rats, 0.5 hours prior to trypsin, 50% inhibition of latency response
Description: The rats used in these studies were Lewis male, weighing 160-180 g. and assigned to groups consisting of 5-6 animals. Test compounds were given to fasted rats by oral gavage 0.5 hours prior to the subplantar injection of […] trypsin in one hind limb. One hour later the rats were evaluated for hyperalgesia using an F-shaped mechanical force clamp on the injected hind limb metatarsal area. Latency (seconds) to the algesic response (vocalization or flight) was determined, with 4 seconds being the maximum latency allowed. ED50 values were estimated by linear regression analysis and represent the dose at which a given drug extended the latency response to produce 50% inhibition using the formula: (4 sec.-Control Latency)-(4 sec.-Test Latency)/4 sec.-Control Latency×100.

[7] = test system: established adjuvant-induced polyarthritis; assay: established adjuvant-induced polyarthritis; type: in vivo, rat (female Lewis); conditions: 50 mg/kg b.i.d.
Description: The procedures for this test have been described in detail by R. Vinegar, J. F. Truax, J. L. Selph, A. Lea, and P. R. Johnston (J. Immunopharmacol. 1:497-520, 1979). The rats used in these studies were female Lewis rats whose starting weight was 190±10 g. Arthritic rats were assigned to treatment groups consisting of six animals each. Fed rats were dosed by oral gavage starting on day 21 post adjuvant injection; therapy was continued until day 28. The incidence and severity of arthritic lesions were assessed using a modification of the scoring procedure described by H. L. F. Currey and M. Ziff (J. Exp. Med. 121:185-203, 1968). Briefly, the bilateral joints were scored for erythema, edema, and ankylosis as outlined below:
The maximal possible score per rat was 40. Experimental results were analyzed by one-way ANOVA, followed by post hoc comparisons of treatment effects versus untreated arthritic control using the Newman-Keuls test. The percent inhibition of each drug-treated group was calculated from the mean relative to the arthritic control.

[8] = test system: maximal electroshock-induced convulsions; assay: protection against maximal electroshock-induced convulsions; type: in vivo; conditions: ip; rat, i.p.; prevention of hind limb extension in 50% of animals; read-out: ED50 MES (maximal electroshock)
Description: Anticonvulsant activity of compounds of formula (I) was determined using a method described by Mehta et al., J.Med.Chem., 24, 465 (1981).
The anticonvulsant activity is reported as an ED50 in mg/kg. The ED50 for protection against maximal electroshock-induced convulsions was the dose which prevented hind limb extension in 50% of the animals. The ED50 for protection against Metrazol-induced convulsions was the dose which prevented convulsions in 50% of the animals.

punished responding = assay: anxiolytic activity, punished responding (Geller and Seifter); type: in vivo; conditions: Rattus norvegicus, po; rats, p.o.; lowest dose producing significant increase in punished responding; read-out: MED (Minimal Effective Dose)
Description: Anxiolytic activity of compounds of formula (I) was measured using the method of Geller and Seifter, J.Psychopharmacolgia, 1, 482 (1960) as modified by Pollard and Howard, Psychopharmacology, 62, 117 (1979). Clinically efficacious anxiolytics increase punished responding. The anxiolytic activity of the compound is reported as the lowest dose necessary to produce a significant increase in punished responding in rats(MED).

[9] = 50% inhibition of cell accumulation, read-out: ED50 Cells
[10] = 50% inhibition of edema formation, read-out: ED50 Edema

Compound | ED50 [1, 9] [mg/kg] | ED50 [1, 10] [mg/kg] | ED50 [2] [mg/kg] | deaths (CD-1 mice) | MTD at 168 h [3] [mg/kg] | TD50 [4] [mg/kg] | selectivity ratio [4] | ED50 [5] [mg/kg] | ED50 [6] [mg/kg] | arthritic scores ([7]; days 22, 25, and 27, oral gavage) | Spleen weight ([7]; postmortem on day 27) | plasma fibrinogen ([7]; postmortem on day 27) | ED50 [8] [mg/kg] | minimal effective dose (punished responding) [mg/kg]
NC(=O)/C=C1\CCc2ccc(F)cc21 [Example 1, (E)-2-(6-Fluoro-1-indanylidene)acetamide] | 21 | 20 | 51 | no deaths | > 250 | 88 | 1.7 | – | – | – | – | – | – | –
NC(=O)/C=C1\CCc2c(F)cc(F)cc21 [Example 5, (E)-2-(4,6-difluoro-1-indanylidene)acetamide] | 16 | 12 | 54 | no deaths | > 1000 | 79 | 1.5 | 22 | 4 | significantly (p<0.01) lowered | significantly reduced (p<0.01) | significantly reduced (p<0.01) | – | –
O=C(/C=C1\CCCc2ccc(F)cc21)NC1CC1 [Example 13, (E)-N-Cyclopropyl-2-(7-fluoro-1,2,3,4-tetrahydro-1-naphthylidene)acetamide] | – | – | – | – | – | – | – | – | – | – | – | – | 25 | 3.13
